# Assay results taken from patent publication KR20170021349A, “다양한 질병의 치료를 위한 jnk 신호 전달 경로의 세포 투과성 펩타이드 억제자의 새로운 용도” (자이겐 인플라메이션 리미티드, priority 2014, dated 2017).
# “And” between values parts separate entries of the source, which are not always exact repeats. Equal entries are not always repeated.
# What was measured:
# [1] = Ocular MTD study, subconjunctival; assay type: in vivo, rabbit
# [2] = tested on: human foreskin fibroblasts (HFFs); test: Neutral Red cytotoxicity assay; assay type: cell-based; conditions: 1, 2, 5 μM, 24 h
# [3] = tested on: hAPP Tg mice; test: hAPP transgenic mouse model of Alzheimer's disease; assay type: in vivo
# [4] = tested on: Hep G2 tumours in SWISS nude mice; test: Orthotopic Hep G2 human liver carcinoma, 1 mg/kg; assay type: in vivo, mouse
# [5] = Ocular pharmacokinetics after single and repeated subconjunctival administration; assay type: in vivo, rabbit
# [6] = tested on: Lewis rats; test: Endotoxin-induced uveitis (EIU), duration of action after subconjunctival injection; assay type: in vivo, rat
# [7] = tested on: HCT 116 tumours in SCID mice; test: Orthotopic HCT 116 human colon tumour; assay type: in vivo, mouse
# [8] = tested on: Sprague-Dawley albino rats; test: Light-induced photoreceptor damage (AMD model), ERG and ONL thickness; assay type: in vivo, rat
# [9] = Immunostaining of liver 24 h after 1 mg/kg i.v.; assay type: in vivo, rat; conditions: Fig. 26
# [10] = tested on: C57BL/6 mice; test: Bleomycin-induced acute lung inflammation (COPD model); assay type: in vivo, mouse
# [11] = tested on: Sprague-Dawley rats; test: STZ diabetic nephropathy model, chronic administration; assay type: in vivo, rat; conditions: 1, 2, 4 mg/kg i.v. weekly, 9 weeks
# [12] = Phase I single ascending i.v. dose study, healthy male volunteers; assay type: in vivo, human
# [13] = tested on: Brown Norway rats; test: STZ diabetic retinopathy, repeated subconjunctival administration; assay type: in vivo, rat
# [14] = tested on: primary cortical neurons of PKR-/- mice; test: Aβ42-induced stress/apoptosis in PKR-/- cortical neurons; assay type: cell-based, mouse
# [15] = tested on: rat pancreatic islets; test: Rat islets, 4 h hypoxia; assay type: cell-based; conditions: 100 μM
# [16] = tested on: female Sprague-Dawley rats; test: Cystometry in conscious rats with CYP-induced cystitis; assay type: in vivo, rat; conditions: 2 mg/kg i.v.; 30-60 min post-dose; P<0.01
# [17] = tested on: Wistar rats; test: Puromycin aminonucleoside (PAN)-induced nephropathy, 56 days; assay type: in vivo, rat
# [18] = tested on: murine macrophages; test: LPS-induced cytokine release in primary cells; assay type: cell-based, mouse; conditions: Fig. 28 A-C, non-toxic concentrations
# [19] = 20 μg/eye, 1 day before induction
# [20] = 20 μg/eye, 2 days before induction
# [21] = 20 μg/eye, 7 days before induction
# [22] = 20 μg/eye, 14 days before induction
# [23] = 20 μg/eye, 21 days before induction
# [24] = 20 μg/eye, 28 days before induction
# [25] = dual PKR and JNK inhibition, 10 μM
substance,measurement,setting,value
NH2-DQSRPVQPFLNLTTPRKPRPPRRRQRRKKRG-COOH (H-DQSRPVQPFLNLTTPRKPRPPRRRQRRKKRG-OH; also: D-amino acids (positions not given here)) [XG-102],NOAEL,[1],~600 µg
same,cytotoxicity,[2],관찰되지 않았으며
same,spatial learning in Morris Water Maze,"[3]; 0.1 mg/kg every 2 wk or 10 mg/kg every 3 wk s.c., 4 months",크게 영향을 받지 않았다
same,"brain Aβ1-42 level, Triton X-100 fraction","[3]; 0.1 mg/kg, p<0.05 vs vehicle",현저한 감소를 나타내었다
same,cortical 6E10 IR plaque load,[3]; 10 mg/kg vs vehicle,비히클에 비해 증가하였으나
same,brain homogenate Aβ1-40 levels,"[3]; ELISA, 4 fractions",영향을 미치지 않았다
same,CSF Aβ1-40 and Aβ1-42 levels,"[3]; p<0.01 at 10 mg/kg, <0.05 at 0.1 mg/kg",현저하게 감소되었다
same,number and area % of hippocampal ThioflavinS-positive plaques,"[3]; p<0.05 at 10 mg/kg, p<0.01 at 0.1 mg/kg",음성적인 투여량 의존적 감소를 유도함
same,tolerance (body weight),[4]; 1 mg/kg/inj i.v.,내약성이 우수함
same,T/C,[4]; 1 mg/kg/inj i.v. [Q4Dx4]x2,120%
same,mean survival time (as headed),"[4]; 1 mg/kg/inj i.v. [Q4Dx4]x2, vehicle 102",123 일
same,median survival time ± SD (as headed),"[4]; 1 mg/kg/inj i.v. [Q4Dx4]x2 from D10, D41, vehicle 102 ± 8",111 ± 14 days
same,"presence in choroid, bulbar conjunctiva, iris-ciliary body",[5]; 7 days after administration,여전히 존재함
same,detection in plasma,"[5]; rabbit, in vivo",항상 검출되지 않았다
same,"clinical score, mean ± SEM (n=20)","[6]; 20 μg/eye subconj., day of induction, 24 h after LPS, vehicle 4.0 ± 0.2",2.8 ± 0.2
same,"clinical score, mean ± SEM (n=20)",[6]; [19],1.6 ± 0.1
same,"clinical score, median",[6]; [19],1.5
same,"leukocytes in aqueous humor, mean ± SEM (n=20)",[6]; [19],1668 ± 149 세포/μL
same,"leukocytes in aqueous humor, median",[6]; [19],1540 세포/μL
same,reduction of clinical score,[6]; [19],60%
same,reduction of leukocyte infiltration,[6]; [19],48%
same,"clinical score, mean ± SEM (n=20)",[6]; [20],1.8 ± 0.2
same,"clinical score, median",[6]; [20],2.0
same,"leukocytes in aqueous humor, mean ± SEM (n=20)",[6]; [20],1844 ± 232 세포/μL
same,"leukocytes in aqueous humor, median",[6]; [20],1500 세포/μL
same,reduction of clinical score,[6]; [20],55%
same,reduction of leukocyte infiltration,[6]; [20],43%
same,"clinical score, mean ± SEM (n=20)",[6]; [21],3.3 ± 0.2
same,"clinical score, median",[6]; [21],3.0
same,"leukocytes in aqueous humor, mean ± SEM (n=20)",[6]; [21],2878 ± 331 세포/μL
same,"leukocytes in aqueous humor, median",[6]; [21],2473 세포/μL
same,reduction of clinical score,[6]; [21],18%
same,reduction of leukocyte infiltration,[6]; [21],11%
same,"clinical score, mean ± SEM (n=20)",[6]; [22],2.9 ± 0.2
same,"clinical score, median",[6]; [22],3.0
same,"leukocytes in aqueous humor, mean ± SEM (n=20)",[6]; [22],976 ± 143 세포/μL
same,"leukocytes in aqueous humor, median",[6]; [22],648 세포/μL
same,reduction of clinical score,[6]; [22],28%
same,reduction of leukocyte infiltration,[6]; [22],70%
same,"clinical score, mean ± SEM (n=20)",[6]; [23],3.1 ±0.3
same,"clinical score, median",[6]; [23],3.0
same,"leukocytes in aqueous humor, mean ± SEM (n=20)",[6]; [23],1029 ± 164 세포/μL
same,"leukocytes in aqueous humor, median",[6]; [23],1023 세포/μL
same,reduction of clinical score,[6]; [23],23%
same,reduction of leukocyte infiltration,[6]; [23],68%
same,"clinical score, mean ± SEM (n=20)",[6]; [24],3.3 ± 0.2
same,"clinical score, median",[6]; [24],4.0
same,"leukocytes in aqueous humor, mean ± SEM (n=20)",[6]; [24],1260 ± 263 세포/μL
same,"leukocytes in aqueous humor, median",[6]; [24],915 세포/μL
same,reduction of clinical score,[6]; [24],18%
same,reduction of leukocyte infiltration,[6]; [24],61%
same,"clinical score, median","[6]; 20 μg/eye, day of induction",3.0
same,"leukocytes in aqueous humor, median","[6]; 20 μg/eye, day of induction",2005 세포/μL
same,reduction of clinical score,"[6]; 20 μg/eye, day of induction",30%
same,reduction of leukocyte infiltration,"[6]; 20 μg/eye, day of induction",31%
same,"leukocytes in aqueous humor, mean ± SEM (n=20)","[6]; 20 μg/eye, day of induction, vehicle 3236 ± 346",2226 ± 192 세포/μL
same,mice with more than 1 liver metastasis,[7]; 0.1 mg/kg PO,25%
same,mean body weight change at D-2,[7]; 0.1 mg/kg/adm PO,7.1±4.6%
same,number of mice without liver metastasis,[7]; 1 mg/kg PO,가장 높았으며
same,mice with more than 1 liver metastasis,"[7]; 1 mg/kg PO, vehicle 40%",12.5%
same,mice with more than 1 liver metastasis,[7]; 1 mg/kg SC,25%
same,"mortality D0-D9 (surgical complications) in the four treated groups, as listed","[7]; PO/SC 0.1 and 1 mg/kg Q1Dx14, vehicle 33%, group order not given",40% and 34% and 47%
same,tolerance of treatment,[7]; Q1Dx14,내약(tolerated)되었음
same,b-wave recovery (% of baseline),"[8]; 1.5 μg/eye IVT, day 9",55.3%
same,a-wave recovery (% of baseline),"[8]; 1.5 μg/eye IVT, day 16",47.5%
same,b-wave recovery (% of baseline),"[8]; 1.5 μg/eye IVT, day 16",61.7%
same,a-wave recovery (% of baseline),"[8]; 1.5 μg/eye IVT, day 23",48.3%
same,b-wave recovery (% of baseline),"[8]; 1.5 μg/eye IVT, day 23",73.5%
same,ONL thickness loss (% vs non-induced control eyes),[8]; 1.5 μg/eye ivt,39%
same,ONL thickness,"[8]; 1.5 μg/eye ivt, day 23, p<0.05 vs vehicle",24.89 ± 4.01 μm
same,b-wave recovery (% of baseline),"[8]; 15 μg/eye IVT, day 9",60.6%
same,a-wave recovery (% of baseline),"[8]; 15 μg/eye IVT, day 16",51.1%
same,b-wave recovery (% of baseline),"[8]; 15 μg/eye IVT, day 16",62.3%
same,a-wave recovery (% of baseline),"[8]; 15 μg/eye IVT, day 23",41.8%
same,b-wave recovery (% of baseline),"[8]; 15 μg/eye IVT, day 23",56.5%
same,ONL thickness loss (% vs non-induced control eyes),[8]; 15 μg/eye ivt,40%
same,ONL thickness,"[8]; 15 μg/eye ivt, day 23, p<0.05 vs vehicle",24.42 ± 5.99 μm
same,a-wave recovery (% of baseline),"[8]; 150 μg/eye IVT, day 9 (vehicle 5.7)",23.6%
same,b-wave recovery (% of baseline),"[8]; 150 μg/eye IVT, day 9 (vehicle 15)",31.9%
same,a-wave recovery (% of baseline),"[8]; 150 μg/eye IVT, day 16 (vehicle 13.2)",24.1%
same,b-wave recovery (% of baseline),"[8]; 150 μg/eye IVT, day 16 (vehicle 24.8)",38.9%
same,a-wave recovery (% of baseline),"[8]; 150 μg/eye IVT, day 23 (vehicle 22.5)",23.7%
same,b-wave recovery (% of baseline),"[8]; 150 μg/eye IVT, day 23 (vehicle 30.6)",37.1%
same,ONL thickness loss (% vs non-induced control eyes),[8]; 150 μg/eye ivt,53%
same,ONL thickness,"[8]; 150 μg/eye ivt, day 23",18.95 ± 9.17 μm
same,"accumulation in liver, especially Kupffer cells",[9],명백한 축적
same,neutrophil recruitment or other cell types in BAL,"[10]; 0.001 mg/kg s.c. single dose, 24 h",영향을 미치지 않았다
same,neutrophil recruitment and total cell number in BAL,"[10]; 0.1 mg/kg s.c. single dose, 24 h",현저하게 감소시켰다
same,lung MPO level,[10]; MPO not induced by bleomycin,영향을 주지 않았다
same,TNF level in BALF,[10]; TNF very low after BLM,감소하는 경향이 관찰되었다
same,body weight vs vehicle-treated STZ rats,[11],차이를 나타내지 않았다
same,time at which plasma concentration fell below LLOQ,[12]; 10 μg/kg i.v. infusion,≤ 2 시간
same,time at which plasma concentration fell below LLOQ,"[12]; 40 μg/kg, after start of infusion",3 시간
same,time at which plasma concentration fell below LLOQ,"[12]; 80 μg/kg, after start of infusion",≤ 7 시간
same,inter-subject variability of PK parameters (CV% of geometric mean),"[12]; 80 μg/kg, except MRT",29-44%
same,increase of AUC0-last with dose,[12]; 10-80 μg/kg,선형 이상의 비율로 증가했다
same,inter-subject variability of PK parameters (CV% of geometric mean),"[12]; 10 and 40 μg/kg, most parameters",15-30%
same,increase of Cmax with dose,[12]; 40 to 80 μg/kg,선형 이상의 비율로 증가하는 것으로 나타났다
same,safety and tolerability,"[12]; single i.v. 10, 40 or 80 μg/kg",안전하고 내약성이 우수했다
same,decline of contrast threshold,[13]; 200 μg/eye,현저하게 지연되었다
same,"ocular irritation (chemosis, hyperemia, discharge)","[13]; 2, 20, 200 μg/eye every 2 weeks subconj.",안구 자극이 관찰되지 않았다
same,retinal cytokine levels (all 23),[13]; 20 or 200 μg/eye,BLQ
same,progression of visual acuity loss (spatial frequency threshold),"[13]; 20 or 200 μg/eye, days 57-99",현저하게 지연시켰다
same,contrast threshold vs vehicle,"[13]; all doses, day 99",현저하게 높은 대조 역치 값을 가졌으며
same,visual acuity score vs vehicle-treated STZ group,"[13]; all doses, day 113 (significant at 2 and 200 μg/eye)",높은 시력 점수를 보였고
same,decrease of PARP expression level vs treated WT neurons,[14]; [25],93%
same,decrease of caspase 3 activity vs treated WT neurons,[14]; [25],87%
same,decrease of cleaved caspase 3 vs treated WT neurons,[14]; [25],83%
same,change of JNK activation,"[14]; peptide pre-treatment (XG-102 10 μM), 2 μM Aβ42",-35%
same,c-Jun activation,"[14]; peptide pre-treatment, 2 μM Aβ42",변화시키지 않았다
same,hypoxia-induced phosphorylation of JNK and JUN,[15]; 1 h pre-treatment + 4 h hypoxia,인산화를 억제하지 않았다
same,islet apoptosis and necrosis,[15]; normoxia and hypoxia,감소되었다
same,intercontraction interval (ICI) and bladder capacity (BC) vs basal,[16],현저하게 증가시켰다
same,threshold pressure (ThP) vs basal,[16],현저한 감소
same,effect on PAN-induced glomerulosclerosis,"[17]; 1 mg/kg, 7 weekly i.v. injections",효과가 없었다
same,effect on PAN-induced glomerulosclerosis,"[17]; 4 mg/kg, 4 i.v. injections from day 21",강한 효과를 초래하였다
same,PAN-induced glomerulosclerosis,"[17]; 7 weekly i.v. injections, 2 and 4 mg/kg",용량 의존적으로 현저하게 감소시키는
same,decrease in plasma LDL,[17]; especially 4 mg/kg groups,현저하는 않더라도 관찰되었다
same,effect on body weight vs PAN/saline,"[17]; rat, in vivo",관찰되지 않았다
same,"LPS-induced TNFa, IL-6, Rantes release",[18],사이토카인 방출을 억제한다
